Laboratory results from patent EP1227083A1, “3-AMINOPIPERIDINE DERIVATIVES AS INTEGRIN $g(a)v$g(b)3 ANTAGONISTS” (Meiji Seika Kaisha, Ltd., priority 1999, dated 2001).
Where “and” joins values, the source holds several entries; their conditions need not be identical. Equal entries are not always repeated. Where two headings read alike, the source gives them in different places.

How the values were obtained:
GP IIb/IIIa = GP IIb/IIIa (Homo sapiens, UniProt P05106+P08514); assay: GP IIb/IIIa antagonistic activity (method of Pharmacological Test 2 in WO 94/21599); assay type: binding; details: read-out: IC50 (GP IIb/IIIa antagonistic activity)
Chain of GP IIb/IIIa (P08514 32-887 limits assumed): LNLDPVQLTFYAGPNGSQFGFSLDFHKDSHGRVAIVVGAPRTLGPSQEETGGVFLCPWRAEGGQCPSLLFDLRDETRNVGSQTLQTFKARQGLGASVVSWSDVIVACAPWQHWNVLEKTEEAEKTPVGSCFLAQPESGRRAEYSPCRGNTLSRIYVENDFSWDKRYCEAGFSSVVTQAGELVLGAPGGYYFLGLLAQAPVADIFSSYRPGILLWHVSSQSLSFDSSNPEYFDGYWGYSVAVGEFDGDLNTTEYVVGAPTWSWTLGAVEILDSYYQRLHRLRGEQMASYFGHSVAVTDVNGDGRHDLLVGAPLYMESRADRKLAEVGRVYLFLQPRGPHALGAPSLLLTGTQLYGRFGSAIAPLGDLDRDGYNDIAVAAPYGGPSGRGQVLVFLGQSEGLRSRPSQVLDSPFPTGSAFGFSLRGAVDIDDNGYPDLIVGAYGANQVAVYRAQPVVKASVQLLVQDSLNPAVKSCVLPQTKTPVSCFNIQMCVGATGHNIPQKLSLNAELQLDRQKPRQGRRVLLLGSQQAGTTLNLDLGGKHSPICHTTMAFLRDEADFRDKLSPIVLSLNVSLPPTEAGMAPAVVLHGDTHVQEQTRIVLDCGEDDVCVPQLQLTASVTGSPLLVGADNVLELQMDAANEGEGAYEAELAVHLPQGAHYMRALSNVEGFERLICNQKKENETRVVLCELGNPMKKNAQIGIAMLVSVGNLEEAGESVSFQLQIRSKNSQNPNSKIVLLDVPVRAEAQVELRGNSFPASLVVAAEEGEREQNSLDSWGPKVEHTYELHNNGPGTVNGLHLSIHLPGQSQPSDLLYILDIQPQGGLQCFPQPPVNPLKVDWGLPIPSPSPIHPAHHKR
Chain of GP IIb/IIIa (P08514 891-1039 partner limits assumed): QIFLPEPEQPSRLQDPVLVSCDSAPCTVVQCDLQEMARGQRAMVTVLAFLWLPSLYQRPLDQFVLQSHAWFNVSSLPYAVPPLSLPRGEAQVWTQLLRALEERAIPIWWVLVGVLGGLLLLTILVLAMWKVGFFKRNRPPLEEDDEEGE
Chain of GP IIb/IIIa (P05106 27-788): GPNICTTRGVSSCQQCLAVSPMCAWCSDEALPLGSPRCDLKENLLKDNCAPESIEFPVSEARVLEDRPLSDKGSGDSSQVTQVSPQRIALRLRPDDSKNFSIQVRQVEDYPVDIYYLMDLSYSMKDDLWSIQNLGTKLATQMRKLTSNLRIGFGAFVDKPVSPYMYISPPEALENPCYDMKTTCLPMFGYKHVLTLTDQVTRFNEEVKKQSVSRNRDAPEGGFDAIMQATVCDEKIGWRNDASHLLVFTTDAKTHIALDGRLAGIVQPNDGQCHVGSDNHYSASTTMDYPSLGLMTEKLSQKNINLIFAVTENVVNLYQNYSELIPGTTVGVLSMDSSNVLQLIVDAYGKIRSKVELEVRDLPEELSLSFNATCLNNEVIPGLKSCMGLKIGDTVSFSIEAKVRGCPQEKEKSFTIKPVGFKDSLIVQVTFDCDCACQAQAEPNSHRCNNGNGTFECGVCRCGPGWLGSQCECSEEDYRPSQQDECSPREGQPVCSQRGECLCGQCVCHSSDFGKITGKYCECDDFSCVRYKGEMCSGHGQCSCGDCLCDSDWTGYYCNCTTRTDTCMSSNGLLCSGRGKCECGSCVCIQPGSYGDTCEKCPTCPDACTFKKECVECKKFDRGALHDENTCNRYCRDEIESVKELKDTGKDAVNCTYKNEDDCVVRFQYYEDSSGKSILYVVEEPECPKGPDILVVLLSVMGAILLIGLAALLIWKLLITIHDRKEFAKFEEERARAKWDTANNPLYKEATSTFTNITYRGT
Procedure: GP IIb/IIIa antagonistic activity was measured for compounds according to the present invention. The measurement of the GP IIb/IIIa antagonistic activity was carried out according to the method described in Pharmacological Test 2 in WO 94/21599.

[1] = molecular target: T1, Integrin αvβ3 (vitronectin receptor) (Homo sapiens, UniProt P05106+P06756); assay: αvβ3 Binding assay (vitronectin-vitronectin receptor binding assay)
T1 construct: a vitronectin receptor (protein content: 118 µg/ml) purified from the human placenta; from tissue; host or cells: human placenta
T1 sequence (P06756 31-889 limits assumed): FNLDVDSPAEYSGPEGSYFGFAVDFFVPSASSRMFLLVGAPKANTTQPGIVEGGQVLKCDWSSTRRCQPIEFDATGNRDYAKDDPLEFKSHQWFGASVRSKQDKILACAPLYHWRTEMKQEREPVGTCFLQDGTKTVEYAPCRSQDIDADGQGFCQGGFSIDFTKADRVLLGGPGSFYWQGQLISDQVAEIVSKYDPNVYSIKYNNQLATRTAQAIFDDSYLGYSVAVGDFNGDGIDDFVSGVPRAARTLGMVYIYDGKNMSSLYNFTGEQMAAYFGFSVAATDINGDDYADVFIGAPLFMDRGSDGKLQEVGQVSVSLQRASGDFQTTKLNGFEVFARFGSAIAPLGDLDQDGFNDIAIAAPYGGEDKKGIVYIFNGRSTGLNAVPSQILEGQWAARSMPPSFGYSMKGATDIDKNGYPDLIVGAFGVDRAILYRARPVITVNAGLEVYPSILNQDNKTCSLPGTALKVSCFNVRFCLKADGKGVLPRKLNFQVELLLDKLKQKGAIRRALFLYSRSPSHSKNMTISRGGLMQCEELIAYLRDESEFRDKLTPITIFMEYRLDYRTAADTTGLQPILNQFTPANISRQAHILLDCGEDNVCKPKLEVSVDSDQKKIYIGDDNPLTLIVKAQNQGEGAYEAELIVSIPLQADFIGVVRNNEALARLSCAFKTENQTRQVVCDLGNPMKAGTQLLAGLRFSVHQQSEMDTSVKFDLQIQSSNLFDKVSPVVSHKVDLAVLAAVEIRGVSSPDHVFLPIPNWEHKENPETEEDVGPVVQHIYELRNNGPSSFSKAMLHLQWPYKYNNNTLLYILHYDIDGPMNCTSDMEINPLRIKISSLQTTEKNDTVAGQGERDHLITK
T1 sequence (P06756 891-1048 partner limits assumed): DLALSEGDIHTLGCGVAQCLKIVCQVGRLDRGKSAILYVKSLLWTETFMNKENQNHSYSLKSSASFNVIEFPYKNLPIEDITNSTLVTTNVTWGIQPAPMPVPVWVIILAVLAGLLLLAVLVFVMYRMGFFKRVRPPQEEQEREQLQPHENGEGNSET
T1 sequence (P05106 27-788): as the sequence (P05106 27-788) above
Procedure: Pharmacological Test Example 1: αvβ3 Binding assay
Integrin αvβ3 antagonistic activity of compounds according to the present invention was measured in a vitronectin-vitronectin receptor binding assay system in accordance with the method of Kouns et al. (W. C. Kouns, D. Kirchhofer, P. Hadvary, A. Edenhofer, T. Weller, G. Pfenninger, H. R. Baumgartner, L. K. Jennings and B. Steiner, Blood, 80, 2539-2547 (1992)).
Specifically, a vitronectin receptor (protein content: 118 µg/ml) purified from the human placenta in accordance with the method of Pytela et al. (R. Pytela, M. D. Pierschbacher, S. Argraves, S. Suzuki, and E. Ruoslahti, Method in Enzymology, 144, 475-489 (1987)) was diluted 50 times with TBS (20 mM Tris-HCl, 150 mM NaCl, 1 mM CaCl2, 1 mM MgCl2, pH 7.4), and distributed and coated on wells (50 µl/well) of a plate (Maxisorp, Nunc, 96 well Immuno Plate). The plate was then allowed to stand at 4°C for one day, washed twice with TBS (200 µl/well), and then subjected to blocking with TBS (150 µl/well) containing 1% bovine serum albumin (SIGMA) at 4°C overnight. After washing twice with TBS (200 µl/well), 50 µl of vitronectin (CALBIOCHEM) adjusted to 0.2 µg/ml by the addition of TBS (TBS-Tween) containing 0.01% Tween-20 was mixed with 50 µl of each test compound adjusted to each concentration in wells, and a reaction was allowed to proceed at room temperature for 4 hr. After the completion of the reaction, the wells were washed three times with TBS-Tween. A solution prepared by diluting anti-vitronectin rabbit antiserum (CHEMICON) 500 times with TBS-Tween was added as a primary antibody in an amount of 50 µl/well, and a reaction was allowed to proceed at room temperature for 1.5 hr. After washing three times with 200 µl/well of TBS-Tween, a peroxidase (POD)-labeled anti-rabbit IgG antibody solution (CAPPEL) diluted 500 times with TBS-Tween was added as a secondary antibody in an amount of 50 µl/well, and a reaction was allowed to proceed at room temperature for 1.5 hr. After washing three times with TBS-Tween (200 µl/well), ABTS (2,2'-azino-bis(3-ethylbenzthiazoline-6-sulfonic acid), SIGMA) was adjusted to 1 mg/ml by the addition of a ten-fold diluted POD-buffer (ZYMED), and was added in an amount of 50 µl/well, and a reaction was allowed to proceed for 5 to 10 min. A 0.1 M citric acid buffer (pH 4.3) containing 0.05% NaN3 was added in an amount of 50 µl/well to stop the reaction, followed by the measurement of the absorbance at 415 nm with a microplate reader (MTP 32, Corona Electric) (reference: 675 nm). The total binding was defined as the absorbance after a reaction using 50 µl of TBS-Tween instead of the test compound, and the non-specific binding (100% inhibition) was defined as the absorbance after a reaction using 50 µl of TBS-Tween containing 2 x 10^-3 M RGDS. The inhibition was calculated by the following equation: Inhibition (%) = 100-((absorbance in the presence of test compound - non-specific binding))/((total binding - non-specific binding))× 100 [formula]
IC50 was determined from a primary regression line of the logarithm of each concentration of the test compound and the logarithm of (100 - inhibition)/inhibition.

Oral absorption in rats = assay type: in vivo; details: data not shown
[2] = test system: human platelet aggregation; assay: Human platelet aggregation inhibitory activity (method of Pharmacological Test 1 in WO 94/21599); assay type: cell-based
Procedure: Human platelet aggregation inhibitory activity was measured for compounds according to the present invention. The measurement of the human platelet aggregation inhibitory activity was carried out according to the method described in Pharmacological Test 1 in WO 94/21599.

[3] = test system: human vascular smooth muscle cells; assay: Inhibitory activity against adhesion of human vascular smooth muscle cells to vitronectin; assay type: cell-based; details: immobilized human vitronectin
Procedure: Pharmacological Test Example 3: Inhibitory activity against adhesion of human vascular smooth muscle cells to vitronectin
The adhesion of human vascular smooth muscle cells to immobilized human vitronectin was measured in accordance with the method of Liaw et al. (Liaw L, Almeida M, Hart CE, Schwartz SM, and Giachelli CM, Circulation Research, 74 (2), 214-224 (1994)).
A Dulbecco's phosphate buffer (Dulbecco's PBS(-), Nissui Pharmaceutical Co., Ltd.) solution of human plasma-derived vitronectin (CALBIOCHEM) adjusted to a concentration of 4 µg/ml was first added to wells (50 µl/well) of a microplate (Maxisorp, Nunc), and a reaction for immobilization was allowed to proceed at 4°C overnight. […]
Next, 50 µl of a Dulbecco's modified Eagle's basal medium containing 0.1% of bovine serum albumin with a medicament added thereto was added to the wells of the human vitronectin-coated assay microplate, followed by pre-cultivation under 5% carbon dioxide at 37°C for 10 min. […] The absorbance of the microplate thus obtained was measured at 595 nm. […] The inhibition was calculated by the following equation. IC50 was determined from a primary regression line of the logarithm of each concentration of the test compound and the logarithm of (100 - inhibition)/inhibition. […]

[4] = read-out: IC50 (integrin αvβ3 antagonistic activity); vitronectin binding to vitronectin receptor purified from the human placenta
[5] = vitronectin binding to vitronectin receptor purified from the human placenta; read-out: IC50 (integrin αvβ3 antagonistic activity)

| SMILES | IC50 (GP IIb/IIIa) | also measured |
| --- | --- | --- |
| O=C(NC[C@H](NS(=O)(=O)c1ccccc1)C(=O)O)c1ccc(N2CCCC(Nc3ncccn3)C2)cc1 (stereo partly drawn) [Example 2, (2S)-Benzenesulfonylamino-3-[4-{3-(pyrimidin-2-ylamino)piperidin-1-yl}benzoylamino]propionic acid] | ≤ 1.1 nM | – |
| O=C(NC[C@H](NS(=O)(=O)c1ccccc1)C(=O)O)c1ccc(N2CCCC(NC3=NCCCN3)C2)cc1 (stereo partly drawn) [Example 3, (2S)-Benzenesulfonylamino-3-[4-{3-(1,4,5,6-tetrahydropyrimidin-2-ylamino)piperidin-1-yl}benzoylamino]propionic acid] | ≤ 1.1 nM | IC50 [1, 4]: ≤ 1 nM |
| O=C(NC[C@H](NS(=O)(=O)c1ccccc1)C(=O)O)c1ccc(N2CCC[C@H](Nc3ncccn3)C2)c(F)c1 [Example 5, (2S)-Benzenesulfonylamino-3-[3-fluoro-4-{(3S)-(pyrimidin-2-ylamino)piperidin-1-yl}benzoylamino]-propionic acid] | – | oral absorption (Oral absorption in rats): had oral absorption |
| O=C(NC[C@H](NS(=O)(=O)c1ccccc1)C(=O)O)c1ccc(N2CCC[C@H](NC3=NCCCN3)C2)c(F)c1 [Example 6, (2S)-Benzenesulfonylamino-3-[3-fluoro-4-{(3S)-(1,4,5,6-tetrahydropyrimidin-2-ylamino)piperidin-1-yl}benzoylamino]propionic acid] | ≤ 1.1 nM and 1.1 nM | – |
| O=C(NC[C@H](NS(=O)(=O)c1ccccc1)C(=O)O)c1ccc(N2CCC[C@@H](NC3=NCCCN3)C2)c(F)c1 [Example 9, (2S)-Benzenesulfonylamino-3-[3-fluoro-4-{(3R)-(1,4,5,6-tetrahydropyrimidin-2-ylamino)piperidin1-yl}benzoylamino]propionic acid] | ≤ 1.1 nM | – |
| O=C(NC[C@H](NS(=O)(=O)c1ccccc1)C(=O)O)c1ccc(N2CCC[C@H](NC3=NCCCN3)C2)c(F)c1F [Example 19, (2S)-Benzenesulfonylamino-3-[2,3-difluoro-4-{(3S)-(1,4,5,6-tetrahydropyrimidin-2-ylamino)piperidin-1-yl}benzoylamino]propionic acid] | ≤ 1.1 nM | IC50 [1, 4]: ≤ 1 nM |
| O=C(NC[C@H](NS(=O)(=O)c1ccccc1)C(=O)O)c1ccc(N2CCC[C@H](NC3=NCCCN3)C2)c(Cl)c1 [Example 22, (2S)-Benzenesulfonylamino-3-[3-chloro-4-{(3S)-(1,4,5,6-tetrahydropyrimidin-2-ylamino)piperidin-1-yl}benzoylamino]propionic acid] | ≤ 1.1 nM | – |
| O=C(NC[C@H](NS(=O)(=O)c1ccccc1)C(=O)O)c1ccc(N2CCC[C@H](N=C3NCCCN3)C2)cc1 [Example 25, (2S)-Benzenesulfonylamino-3-[4-{(3S)-(1,4,5,6-tetrahydropyrimidin-2-ylamino)piperidin-1-yl}benzoylamino]propionic acid] | ≤ 1.1 nM | IC50 [2]: 56 nM; IC50 [1, 5]: ≤ 1 nM |
| O=C(NC[C@H](NS(=O)(=O)c1ccccc1)C(=O)O)c1ccc(N2CCC[C@H](Nc3ccccn3)C2)cc1 [Example 27, (2S) -Benzenesulfonylamino-3-[4-{(3S)-(pyridin-2-ylamino)piperidin-1-yl}-benzoylamino]propionic acid] | ≤ 1.1 nM | IC50 [1, 4]: ≤ 1 nM |
| O=C(NC[C@H](NS(=O)(=O)c1ccccc1)C(=O)O)c1ccc(N2CCC[C@H](N=C3NCCCN3)C2)cc1F [Example 30, (2S)-Benzenesulfonylamino-3-[2-fluoro-4-{(3S)-(1,4,5,6-tetrahydropyrimidin-2-ylamino)piperidin-1-yl}benzoylamino]propionic acid] | ≤ 1.1 nM | IC50 [3]: 13 nM; IC50 [1, 5]: ≤ 1 nM |
| O=C(NC[C@H](NS(=O)(=O)c1cccs1)C(=O)O)c1ccc(N2CCC[C@H](N=C3NCCCN3)C2)cc1 [Example 44, 3-[4-{(3S)-(1,4,5,6-Tetrahydropyrimidin-2-ylamino)piperidin-1-yl}benzoylamino]-(2S)-{(thiophene-2-sulfonyl)amino}propionic acid] | ≤ 1.1 nM | IC50 [1, 5]: ≤ 1 nM |
